Laboratory results published in ChEMBL document CHEMBL1146729, “Rational design and synthesis of novel heparan sulfate mimetic compounds as antiadhesive agents” (Bioorg Med Chem Lett, 2004).

How the values were obtained:
[1] = molecular target: Coagulation factor X (Homo sapiens, UniProt P00742); assay: Inhibition of Coagulation factor X at 100 uM; No inhibition
[2] = system: HT-1080; assay: Compound (100 uM) was tested for percent inhibition against adhesion of human HT1080 cells; No inhibition; format: functional, cell-based
[3] = molecular target: 72 kDa type IV collagenase (Homo sapiens, UniProt P08253); assay: Inhibition of matrix metalloprotease-2 at 100 uM (inactive)
[4] = molecular target: Prothrombin (Homo sapiens, UniProt P00734); assay: Compound (100 uM) was tested for inhibitory activity against thrombin; No inhibition
[5] = molecular target: T1, Collagenase ColA (Bacteria, UniProt P43153); assay: Inhibition of collagenase at 100 uM (No inhibition); set-up: species or system Hathewaya histolytica
T1 sequence (P43153 whole entry): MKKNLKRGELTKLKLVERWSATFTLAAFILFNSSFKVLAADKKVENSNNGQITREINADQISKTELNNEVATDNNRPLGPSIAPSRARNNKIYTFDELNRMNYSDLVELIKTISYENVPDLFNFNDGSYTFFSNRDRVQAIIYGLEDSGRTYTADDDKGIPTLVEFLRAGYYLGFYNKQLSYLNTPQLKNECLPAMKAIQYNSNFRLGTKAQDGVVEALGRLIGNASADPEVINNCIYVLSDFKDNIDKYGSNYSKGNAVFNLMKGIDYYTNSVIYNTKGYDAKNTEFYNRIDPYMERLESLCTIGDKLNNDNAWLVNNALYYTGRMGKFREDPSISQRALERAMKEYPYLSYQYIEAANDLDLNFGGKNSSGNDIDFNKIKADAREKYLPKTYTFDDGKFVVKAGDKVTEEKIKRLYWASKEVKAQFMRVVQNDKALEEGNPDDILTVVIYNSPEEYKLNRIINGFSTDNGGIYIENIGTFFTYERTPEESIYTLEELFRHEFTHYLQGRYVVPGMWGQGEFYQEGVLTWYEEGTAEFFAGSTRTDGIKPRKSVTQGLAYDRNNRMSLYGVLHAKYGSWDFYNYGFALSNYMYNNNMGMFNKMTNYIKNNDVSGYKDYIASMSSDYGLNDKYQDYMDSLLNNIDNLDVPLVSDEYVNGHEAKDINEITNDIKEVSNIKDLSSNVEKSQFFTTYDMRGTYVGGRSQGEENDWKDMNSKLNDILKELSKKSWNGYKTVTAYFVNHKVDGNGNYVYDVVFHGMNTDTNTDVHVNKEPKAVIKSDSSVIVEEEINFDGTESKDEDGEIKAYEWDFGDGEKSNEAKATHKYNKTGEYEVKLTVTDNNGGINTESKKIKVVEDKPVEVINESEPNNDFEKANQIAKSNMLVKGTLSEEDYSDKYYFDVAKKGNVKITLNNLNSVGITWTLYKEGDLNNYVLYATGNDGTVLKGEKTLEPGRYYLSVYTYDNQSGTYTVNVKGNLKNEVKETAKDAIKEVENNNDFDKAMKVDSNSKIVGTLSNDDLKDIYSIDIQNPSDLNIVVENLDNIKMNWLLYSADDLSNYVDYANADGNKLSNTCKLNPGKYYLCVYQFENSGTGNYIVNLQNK

[6] = molecular target: Serine protease 1 (Homo sapiens, UniProt P07477); assay: Inhibitory activity against trypsin at 100 uM; No inhibition
[7] = molecular target: Matrix metalloproteinase-9 (Homo sapiens, UniProt P14780); assay: Inhibition of matrix metalloprotease-9 at 100 uM (inactive)
[8] = system: HeLa; assay: Compound (100 uM) was tested for percent inhibition against adhesion of human HeLa cells; No inhibition; format: functional, cell-based
[9] = molecular target: T2, Heparanase (Homo sapiens, UniProt Q9Y251); assay: Inhibitory concentration against heparanase; No inhibition
T2 sequence (Q9Y251 whole entry): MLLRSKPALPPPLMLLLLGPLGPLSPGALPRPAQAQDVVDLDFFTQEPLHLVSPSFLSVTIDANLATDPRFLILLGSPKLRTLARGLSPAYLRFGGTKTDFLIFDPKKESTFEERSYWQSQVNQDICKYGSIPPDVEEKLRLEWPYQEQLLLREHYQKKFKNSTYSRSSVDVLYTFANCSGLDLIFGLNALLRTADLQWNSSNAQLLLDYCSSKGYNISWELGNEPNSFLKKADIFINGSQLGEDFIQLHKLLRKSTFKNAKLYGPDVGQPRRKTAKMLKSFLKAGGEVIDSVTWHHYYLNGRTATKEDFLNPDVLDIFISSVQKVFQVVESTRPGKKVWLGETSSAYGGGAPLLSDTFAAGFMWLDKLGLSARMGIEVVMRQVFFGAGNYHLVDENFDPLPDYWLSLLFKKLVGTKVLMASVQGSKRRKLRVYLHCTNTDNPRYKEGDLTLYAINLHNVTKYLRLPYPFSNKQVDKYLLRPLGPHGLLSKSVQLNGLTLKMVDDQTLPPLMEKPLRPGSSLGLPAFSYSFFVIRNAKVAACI

[10] = molecular target: T2, Heparanase; assay: Compound was tested for inhibitory activity against heparanase
[11] = system: HT-1080; assay: Compound was tested for inhibitory activity against invasion of human HT1080 cells; format: functional, cell-based
[12] = system: HT-1080; assay: Compound (100 uM) was tested for percent inhibition against adhesion of human HT1080 cells; format: functional
[13] = system: HeLa; assay: Compound (100 uM) was tested for percent inhibition against adhesion of human HeLa cells; format: functional
[14] = molecular target: T3, Integrin alpha-5/beta-1 (Homo sapiens, UniProt P05556+P08648); assay: Inhibition of human HT1080 cell adhesion to fibronectin; format: functional, cell-based, HT-1080
[15] = system: HT-1080; assay: Compound was tested for inhibitory activity against adhesion of human Plastic/HT1080 cells; format: functional, cell-based
[16] = system: HT-1080; assay: Compound was tested for inhibitory activity against growth of human HT1080 cells; format: functional, cell-based
[17] = system: HT-1080; assay: Compound was tested for inhibitory activity against adhesion of human laminin/HT1080 cells; format: functional, cell-based
[18] = system: HT-1080; assay: Compound was tested for inhibitory activity against adhesion of human collagen IV/HT1080 cell; format: functional, cell-based
[19] = molecular target: T3, Integrin alpha-5/beta-1; assay: Inhibition of human HeLa cell adhesion to fibronectin; format: functional, cell-based
[20] = molecular target: T3, Integrin alpha-5/beta-1; assay: Inhibition of human A431 cell adhesion to fibronectin; format: functional, cell-based, A-431
[21] = system: HT-1080; assay: Compound was tested for inhibitory activity against migration of human HT1080 cells; format: functional, cell-based

Sequence of Coagulation factor X (P00742 41-179 limits assumed): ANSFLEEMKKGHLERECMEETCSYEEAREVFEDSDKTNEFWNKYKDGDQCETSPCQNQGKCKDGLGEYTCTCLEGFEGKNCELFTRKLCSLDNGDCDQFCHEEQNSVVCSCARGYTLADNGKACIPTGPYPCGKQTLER
Sequence of Coagulation factor X (P00742 235-488 limits assumed): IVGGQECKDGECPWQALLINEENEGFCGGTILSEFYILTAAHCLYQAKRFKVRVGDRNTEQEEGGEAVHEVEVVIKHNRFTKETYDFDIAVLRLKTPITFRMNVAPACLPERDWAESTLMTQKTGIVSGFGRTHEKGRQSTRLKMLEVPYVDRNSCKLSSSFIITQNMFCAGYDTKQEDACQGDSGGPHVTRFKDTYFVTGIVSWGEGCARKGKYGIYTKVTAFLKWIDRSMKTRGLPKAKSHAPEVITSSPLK
Sequence of Serine protease 1 (P07477 whole entry): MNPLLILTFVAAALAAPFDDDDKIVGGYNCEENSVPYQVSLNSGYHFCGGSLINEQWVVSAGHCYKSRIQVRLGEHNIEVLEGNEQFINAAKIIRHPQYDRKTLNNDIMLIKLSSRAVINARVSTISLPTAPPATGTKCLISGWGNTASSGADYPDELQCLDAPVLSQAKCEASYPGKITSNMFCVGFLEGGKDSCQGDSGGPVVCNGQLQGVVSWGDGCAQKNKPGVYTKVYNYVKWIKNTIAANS
Sequence of 72 kDa type IV collagenase (P08253 whole entry): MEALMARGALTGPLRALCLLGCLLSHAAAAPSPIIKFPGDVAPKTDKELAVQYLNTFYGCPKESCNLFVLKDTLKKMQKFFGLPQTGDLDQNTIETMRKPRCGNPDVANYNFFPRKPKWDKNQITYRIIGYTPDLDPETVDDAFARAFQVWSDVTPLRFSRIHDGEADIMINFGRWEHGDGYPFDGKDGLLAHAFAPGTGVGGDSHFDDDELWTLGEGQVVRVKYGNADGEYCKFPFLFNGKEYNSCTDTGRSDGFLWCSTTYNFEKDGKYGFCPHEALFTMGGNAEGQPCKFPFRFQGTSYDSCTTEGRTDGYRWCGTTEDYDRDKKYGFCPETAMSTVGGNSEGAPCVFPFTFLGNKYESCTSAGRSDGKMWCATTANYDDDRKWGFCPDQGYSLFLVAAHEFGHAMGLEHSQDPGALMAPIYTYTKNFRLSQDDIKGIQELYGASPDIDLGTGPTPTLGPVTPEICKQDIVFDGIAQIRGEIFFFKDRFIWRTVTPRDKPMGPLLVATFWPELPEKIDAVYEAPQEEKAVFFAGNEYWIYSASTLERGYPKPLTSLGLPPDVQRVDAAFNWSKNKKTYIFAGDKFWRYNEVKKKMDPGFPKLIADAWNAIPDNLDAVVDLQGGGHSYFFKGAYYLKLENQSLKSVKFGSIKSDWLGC
Sequence of Matrix metalloproteinase-9 (P14780 whole entry): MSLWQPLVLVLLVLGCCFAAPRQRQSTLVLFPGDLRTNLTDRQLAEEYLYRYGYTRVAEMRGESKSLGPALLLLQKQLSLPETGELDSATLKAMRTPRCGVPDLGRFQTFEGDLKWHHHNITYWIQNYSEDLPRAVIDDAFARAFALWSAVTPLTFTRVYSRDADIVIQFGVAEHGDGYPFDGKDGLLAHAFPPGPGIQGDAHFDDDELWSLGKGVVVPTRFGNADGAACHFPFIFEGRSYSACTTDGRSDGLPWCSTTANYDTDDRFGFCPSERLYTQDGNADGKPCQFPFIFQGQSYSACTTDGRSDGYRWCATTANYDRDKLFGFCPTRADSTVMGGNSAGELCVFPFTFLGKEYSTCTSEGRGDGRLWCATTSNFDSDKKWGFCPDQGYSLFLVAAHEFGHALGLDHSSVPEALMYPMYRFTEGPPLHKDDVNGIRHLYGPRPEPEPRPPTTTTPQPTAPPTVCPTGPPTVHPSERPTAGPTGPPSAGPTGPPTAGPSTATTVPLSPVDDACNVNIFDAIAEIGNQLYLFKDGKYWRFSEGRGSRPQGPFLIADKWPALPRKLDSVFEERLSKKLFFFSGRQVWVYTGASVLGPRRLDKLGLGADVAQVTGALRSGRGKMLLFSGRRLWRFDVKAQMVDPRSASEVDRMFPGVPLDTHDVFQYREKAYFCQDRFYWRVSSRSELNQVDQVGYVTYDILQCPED
T3 sequence (P05556 21-798 limits assumed): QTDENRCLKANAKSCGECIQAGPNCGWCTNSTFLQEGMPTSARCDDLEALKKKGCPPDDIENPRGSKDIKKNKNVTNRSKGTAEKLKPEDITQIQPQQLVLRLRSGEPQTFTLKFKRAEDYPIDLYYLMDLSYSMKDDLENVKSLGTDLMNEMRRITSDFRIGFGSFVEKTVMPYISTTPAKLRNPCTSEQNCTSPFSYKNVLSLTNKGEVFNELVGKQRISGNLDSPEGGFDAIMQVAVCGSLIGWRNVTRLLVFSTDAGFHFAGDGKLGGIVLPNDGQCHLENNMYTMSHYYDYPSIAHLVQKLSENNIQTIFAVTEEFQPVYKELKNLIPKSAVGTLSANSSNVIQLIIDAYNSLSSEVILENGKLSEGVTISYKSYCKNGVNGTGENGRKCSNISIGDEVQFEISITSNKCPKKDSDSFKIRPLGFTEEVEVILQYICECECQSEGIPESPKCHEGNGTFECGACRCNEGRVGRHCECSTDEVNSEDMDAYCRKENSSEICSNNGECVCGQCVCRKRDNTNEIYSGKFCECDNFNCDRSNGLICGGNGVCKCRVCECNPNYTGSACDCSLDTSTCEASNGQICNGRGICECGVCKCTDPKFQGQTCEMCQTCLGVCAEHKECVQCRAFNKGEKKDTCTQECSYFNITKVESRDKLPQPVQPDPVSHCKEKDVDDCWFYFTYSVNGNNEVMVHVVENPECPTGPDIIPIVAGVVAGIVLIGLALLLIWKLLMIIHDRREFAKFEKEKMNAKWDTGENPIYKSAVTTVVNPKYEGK
T3 sequence (P08648 42-894 limits assumed): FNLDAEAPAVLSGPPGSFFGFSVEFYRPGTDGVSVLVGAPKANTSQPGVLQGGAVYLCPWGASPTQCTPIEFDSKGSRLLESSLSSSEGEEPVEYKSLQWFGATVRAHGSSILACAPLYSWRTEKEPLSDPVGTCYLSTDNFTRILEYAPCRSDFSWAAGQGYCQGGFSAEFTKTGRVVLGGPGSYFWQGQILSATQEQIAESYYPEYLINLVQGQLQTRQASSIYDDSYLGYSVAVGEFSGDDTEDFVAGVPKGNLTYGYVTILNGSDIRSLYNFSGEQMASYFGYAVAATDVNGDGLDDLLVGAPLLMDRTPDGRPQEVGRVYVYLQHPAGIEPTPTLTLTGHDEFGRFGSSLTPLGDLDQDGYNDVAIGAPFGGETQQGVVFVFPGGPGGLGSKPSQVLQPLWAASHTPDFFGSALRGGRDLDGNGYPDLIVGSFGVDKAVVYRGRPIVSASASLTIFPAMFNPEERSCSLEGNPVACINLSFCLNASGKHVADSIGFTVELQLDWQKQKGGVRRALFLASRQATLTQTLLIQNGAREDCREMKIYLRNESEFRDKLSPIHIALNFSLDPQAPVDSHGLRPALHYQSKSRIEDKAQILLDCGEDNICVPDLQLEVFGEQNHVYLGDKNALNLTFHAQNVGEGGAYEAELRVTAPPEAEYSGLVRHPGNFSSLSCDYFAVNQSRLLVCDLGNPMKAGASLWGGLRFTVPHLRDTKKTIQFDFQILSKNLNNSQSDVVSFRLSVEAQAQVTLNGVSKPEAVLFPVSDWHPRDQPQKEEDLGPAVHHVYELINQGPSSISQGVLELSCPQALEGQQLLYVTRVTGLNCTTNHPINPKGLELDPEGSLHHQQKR
T3 sequence (P08648 895-1049 limits assumed): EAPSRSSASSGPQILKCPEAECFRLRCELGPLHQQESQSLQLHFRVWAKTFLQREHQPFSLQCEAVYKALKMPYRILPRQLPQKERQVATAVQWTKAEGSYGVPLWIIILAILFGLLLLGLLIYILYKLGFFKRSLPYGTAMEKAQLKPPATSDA

Structure (SMILES) | IC50 [1] | IC50 [2] | IC50 [3] | IC50 [4] | IC50 [5] | IC50 [6] | IC50 [7] | IC50 [8] | IC50 [9] | further results
O=C(O)c1ccc(Sc2ccc(C(=O)c3ccccc3C(=O)O)cc2[N+](=O)[O-])cc1 | Not Active | Not Active | Not Active | Not Active | Not Active | Not Active | Not Active | Not Active | Not Active | 
O=C(O)c1ccccc1C(=O)c1ccc(F)c([N+](=O)[O-])c1 | Not Active | Not Active | Not Active | Not Active | Not Active | Not Active | Not Active | Not Active | Not Active | 
CCNc1ccc(C(=O)c2ccccc2C(=O)O)cc1[N+](=O)[O-] | Not Active | Not Active | Not Active | Not Active | Not Active | Not Active | Not Active | Not Active | Not Active | 
CC(=O)OC(=O)c1ccccc1C(=O)c1ccc(Sc2ccccc2)c([N+](=O)[O-])c1 | Not Active | Not Active | Not Active | Not Active | Not Active | Not Active | Not Active | Not Active | Not Active | 
O=C(O)c1ccccc1C(=O)c1ccc(Sc2ccccc2)c([N+](=O)[O-])c1 | Not Active | Not Active | Not Active | Not Active | Not Active | Not Active | Not Active | Not Active | Not Active | IC50 [10]: 300 µM
O=C(O)c1ccccc1C(=O)c1ccc(F)cc1 | Not Active | Not Active | Not Active | Not Active | Not Active | Not Active | Not Active | Not Active | Not Active | 
O=C(O)c1ccccc1C(=O)c1ccc(Oc2ccccc2)c([N+](=O)[O-])c1 | Not Active | Not Active | Not Active | Not Active | Not Active | Not Active | Not Active | Not Active | Not Active | 
CCSc1ccc(C(=O)c2ccccc2C(=O)O)cc1[N+](=O)[O-] | Not Active | Not Active | Not Active | Not Active | Not Active | Not Active | Not Active | Not Active | Not Active | 
O=C(O)c1ccccc1C(=O)c1ccc(NC2CCCCC2)c([N+](=O)[O-])c1 | Not Active | Not Active | Not Active | Not Active | Not Active | Not Active | Not Active | Not Active | Not Active | 
CC(=O)OC(=O)c1ccccc1C(=O)c1ccc(F)c([N+](=O)[O-])c1 | Not Active |  | Not Active | Not Active | Not Active | Not Active | Not Active |  | Not Active | IC50 [11]: 2 µM; Inhibition [12]: 89%; Inhibition [13]: 85%; IC50 [14]: 7 µM; IC50 [15]: 5 µM; IC50 [16]: 10 µM; IC50 [17]: 17 µM; IC50 [18]: 43 µM; IC50 [19]: 16 µM; IC50 [20]: 8 µM; IC50 [21]: 2 µM
CCOc1ccc(C(=O)c2ccccc2C(=O)O)cc1[N+](=O)[O-] | Not Active | Not Active | Not Active | Not Active | Not Active | Not Active | Not Active | Not Active | Not Active | 
O=C(O)CC(Sc1ccc(C(=O)c2ccccc2C(=O)O)cc1[N+](=O)[O-])C(=O)O (stereo not drawn) | Not Active | Not Active | Not Active | Not Active | Not Active | Not Active | Not Active | Not Active | Not Active | 
